Laboratory results from ChEMBL document CHEMBL3734705, “Synthesis and in vitro cytotoxicity of novel C-12 substituted-14-deoxy-andrographolide derivatives as potent anti-cancer agents” (2015).
The source made the active and inactive calls. No cut-off for these calls is given here.

Tests used:
[1] = Cytotoxicity against human TK10 cells assessed as growth level at 10 uM after 48 hrs by SRB assay; format: functional, TK-10
[2] = Cytotoxicity against human COLO205 cells assessed as growth level at 10 uM after 48 hrs by SRB assay; format: functional, COLO 205
[3] = Cytotoxicity against human SF539 cells assessed as growth level at 10 uM after 48 hrs by SRB assay; format: functional, SF-539
[4] = Cytotoxicity against human RPMI8226 cells assessed as growth level at 10 uM after 48 hrs by SRB assay; format: functional, RPMI-8226
[5] = system: U-251; assay: Cytotoxicity against human U251 cells assessed as growth level at 10 uM after 48 hrs by SRB assay; format: functional
[6] = Cytotoxicity against human HOP92 cells assessed as growth level at 10 uM after 48 hrs by SRB assay; format: functional, HOP-92
[7] = system: NCI-H226; assay: Cytotoxicity against human NCI-H226 cells assessed as growth level at 10 uM after 48 hrs by SRB assay; format: functional
[8] = system: 786-0; assay: Cytotoxicity against human 786-0 cells assessed as growth level at 10 uM after 48 hrs by SRB assay; format: functional
[9] = Cytotoxicity against human RXF393 cells assessed as growth level at 10 uM after 48 hrs by SRB assay; format: functional, RXF 393
[10] = system: MDA-MB-231; assay: Cytotoxicity against human MDA-MB-231 cells assessed as growth level at 10 uM after 48 hrs by SRB assay; format: functional
[11] = system: SK-MEL-5; assay: Cytotoxicity against human SK-MEL-5 cells assessed as growth level at 10 uM after 48 hrs by SRB assay; format: functional
[12] = Cytotoxicity against human SF268 cells assessed as growth level at 10 uM after 48 hrs by SRB assay; format: functional, SF-268
[13] = system: M14; assay: Cytotoxicity against human M14 cells assessed as growth level at 10 uM after 48 hrs by SRB assay; format: functional
[14] = Cytotoxicity against human OVCAR4 cells assessed as growth level at 10 uM after 48 hrs by SRB assay; format: functional, OVCAR-4
[15] = system: NCI-H522; assay: Cytotoxicity against human NCI-H522 cells assessed as growth level at 10 uM after 48 hrs by SRB assay; format: functional
[16] = system: HT-29; assay: Cytotoxicity against human HT-29 cells assessed as growth level at 10 uM after 48 hrs by SRB assay; format: functional
[17] = system: A549; assay: Cytotoxicity against human A549 cells assessed as growth level at 10 uM after 48 hrs by SRB assay; format: functional
[18] = Cytotoxicity against human DU145 cells assessed as growth level at 10 uM after 48 hrs by SRB assay; format: functional, DU-145
[19] = system: CCRF-CEM; assay: Cytotoxicity against human CCRF-CEM cells assessed as growth level at 10 uM after 48 hrs by SRB assay; format: functional
[20] = system: MDA-MB-435; assay: Cytotoxicity against human MDA-MB-435 cells assessed as growth level at 10 uM after 48 hrs by SRB assay; format: functional
[21] = Cytotoxicity against human OVCAR8 cells assessed as growth level at 10 uM after 48 hrs by SRB assay; format: functional, OVCAR-8
[22] = Cytotoxicity against human NCI-ADR-RES cells assessed as growth level at 10 uM after 48 hrs by SRB assay; format: functional
[23] = Cytotoxicity against human HCT15 cells assessed as growth level at 10 uM after 48 hrs by SRB assay; format: functional, HCT-15
[24] = Cytotoxicity against human BT549 cells assessed as growth level at 10 uM after 48 hrs by SRB assay; format: functional, BT-549
[25] = system: MCF7; assay: Cytotoxicity against human MCF7 cells assessed as growth inhibition at 10 uM after 48 hrs by SRB assay; format: functional; conditions: MCF7, 48 h, read-out: GI
[26] = system: MDA-MB-435; assay: Cytotoxicity against human MDA-MB-435 cells assessed as growth inhibition at 10 uM after 48 hrs by SRB assay; format: functional; conditions: MDA-MB-435, 48 h, read-out: GI
[27] = system: MDA-MB-231; assay: Cytotoxicity against human MDA-MB-231 cells assessed as growth inhibition at 10 uM after 48 hrs by SRB assay; format: functional
[28] = system: CCRF-CEM; assay: Cytotoxicity against human CCRF-CEM cells assessed as growth inhibition at 10 uM after 48 hrs by SRB assay; format: functional; conditions: read-out: GI
[29] = system: K562; assay: Cytotoxicity against human K562 cells assessed as growth inhibition at 10 uM after 48 hrs by SRB assay; format: functional; conditions: K562, 48 h, read-out: GI
[30] = Cytotoxicity against human SF268 cells assessed as growth inhibition at 10 uM after 48 hrs by SRB assay; format: functional; conditions: SF-268, 48 h, read-out: GI
[31] = Cytotoxicity against human NCI-ADR-RES cells assessed as growth inhibition at 10 uM after 48 hrs by SRB assay; format: functional; conditions: read-out: GI
[32] = Cytotoxicity against human UACC257 cells assessed as growth inhibition at 10 uM after 48 hrs by SRB assay; format: functional; conditions: UACC-257, 48 h, read-out: GI
[33] = system: SK-MEL-28; assay: Cytotoxicity against human SK-MEL-28 cells assessed as growth inhibition at 10 uM after 48 hrs by SRB assay; format: functional; conditions: SK-MEL-28, 48 h, read-out: GI
[34] = Cytotoxicity against human RPMI8226 cells assessed as growth inhibition at 10 uM after 48 hrs by SRB assay; format: functional; conditions: RPMI-8226, 48 h, read-out: GI
[35] = Cytotoxicity against human HCT15 cells assessed as growth inhibition at 10 uM after 48 hrs by SRB assay; format: functional; conditions: HCT-15, 48 h, read-out: GI
[36] = system: SK-MEL-5; assay: Cytotoxicity against human SK-MEL-5 cells assessed as growth inhibition at 10 uM after 48 hrs by SRB assay; format: functional; conditions: SK-MEL-5, 48 h, read-out: GI
[37] = system: A549; assay: Cytotoxicity against human A549 cells assessed as growth inhibition at 10 uM after 48 hrs by SRB assay; format: functional; conditions: A549, 48 h, read-out: GI
[38] = system: M14; assay: Cytotoxicity against human M14 cells assessed as growth inhibition at 10 uM after 48 hrs by SRB assay; format: functional; conditions: M14, 48 h, read-out: GI
[39] = system: EKVX; assay: Cytotoxicity against human EKVX cells assessed as growth inhibition at 10 uM after 48 hrs by SRB assay; format: functional
[40] = system: U-251; assay: Cytotoxicity against human U251 cells assessed as growth inhibition at 10 uM after 48 hrs by SRB assay; format: functional; conditions: U-251, 48 h, read-out: GI
[41] = Cytotoxicity against human SW620 cells assessed as growth inhibition at 10 uM after 48 hrs by SRB assay; format: functional; conditions: SW-620, 48 h, read-out: GI
[42] = Cytotoxicity against human PC3 cells assessed as growth inhibition at 10 uM after 48 hrs by SRB assay; format: functional; conditions: PC-3, 48 h, read-out: GI
[43] = system: T47D; assay: Cytotoxicity against human T47D cells assessed as growth inhibition at 10 uM after 48 hrs by SRB assay; format: functional; conditions: read-out: GI
[44] = system: SN12C; assay: Cytotoxicity against human SN12C cells assessed as growth inhibition at 10 uM after 48 hrs by SRB assay; format: functional; conditions: read-out: GI

Structure (SMILES): C=C1CC[C@@H]2[C@](C)(COC(C)=O)[C@H](OC(C)=O)CC[C@@]2(C)[C@@H]1CC(Nc1ccc(S(=O)(=O)NC(C)=O)cc1)C1=CCOC1=O (mixture of isomers)
- Activity [1]: 2.78%
- Activity [2]: -32.73%
- Activity [3]: -76.71%
- Activity [4]: -16.18%
- Activity [5]: -65.49%
- Activity [6]: 20.95%
- Activity [7]: -52.34%
- Activity [8]: -66.04%
- Activity [9]: -75.81%
- Activity [10]: -38.71%
- Activity [11]: 7.36%
- Activity [12]: 6.72%
- Activity [13]: -35.08%
- Activity [14]: 26.08%
- Activity [15]: -63.21%
- Activity [16]: -69.92%
- Activity [17]: 27.95%
- Activity [18]: 0.37%
- Activity [19]: -27.89%
- Activity [20]: -38.84%
- Activity [21]: -18.21%
- Activity [22]: 11.87%
- Activity [23]: -49.53%
- Activity [24]: -62.63%

Structure (SMILES): C=C1CC[C@@H]2[C@](C)(COC(C)=O)[C@H](OC(C)=O)CC[C@@]2(C)[C@@H]1C/C=C1/C(=O)OC[C@H]1OC(C)=O
- inhibition of growth at 10 µM [25]: 77.1%
- inhibition of growth at 10 µM [26]: 66.9%
- Activity [1]: 16.88%
- Activity [2]: 22.03%
- Activity [3]: 8.54%
- inhibition of growth at 10 µM ([27]; MDA-MB-231, 48 h, read-out: GI): 4.16%
- Activity [4]: 14.12%
- Activity [5]: 54.02%
- Activity [6]: 71.9%
- Activity [7]: 23.61%
- inhibition of growth at 10 µM [28]: 11.4%
- inhibition of growth at 10 µM [29]: 88.9%
- Activity [8]: -10.88%
- inhibition of growth at 10 µM [30]: 12.9%
- inhibition of growth at 10 µM [31]: 75%
- Activity [9]: -7.35%
- inhibition of growth at 10 µM [32]: 33.5%
- Activity [10]: 95.84%
- Activity [11]: 56.18%
- inhibition of growth at 10 µM [33]: 62.2%
- inhibition of growth at 10 µM [34]: 85.9%
- Activity [12]: 87.06%
- Activity [13]: 35.37%
- inhibition of growth at 10 µM [35]: 23%
- Activity [14]: 66.49%
- inhibition of growth at 10 µM [36]: 43.8%
- inhibition of growth at 10 µM [37]: 14.2%
- Activity [15]: -41.64%
- Activity [16]: -39.4%
- inhibition of growth at 10 µM [38]: 64.6%
- Activity [17]: 85.77%
- Activity [18]: 50.88%
- Activity [19]: -11.4%
- growth inhibition (GI) [39]: inactive
- inhibition of growth at 10 µM [40]: 46%
- Activity [20]: 33.07%
- Activity [21]: 27.13%
- Activity [22]: 24.99%
- inhibition of growth at 10 µM [41]: 21.9%
- Activity [23]: -23.04%
- inhibition of growth at 10 µM [42]: 11.5%
- inhibition of growth at 10 µM [43]: 57.2%
- inhibition of growth at 10 µM [44]: 66.6%
- Activity [24]: 27.38%

Structure (SMILES): C=C1CC[C@@H]2[C@](C)(CO)[C@H](O)CC[C@@]2(C)[C@@H]1C/C=C1/C(=O)OC[C@H]1O [ANDROGRAPHOLIDE]
- inhibition of growth at 10 µM [25]: 42.2%
- inhibition of growth at 10 µM [26]: 27.4%
- Activity [1]: 97.49%
- Activity [2]: 94.9%
- Activity [3]: 83.41%
- growth inhibition (GI) [27]: inactive
- Activity [4]: 83.28%
- Activity [5]: 75.79%
- Activity [6]: 107.7%
- Activity [7]: 91.74%
- inhibition of growth at 10 µM [28]: 76.5%
- inhibition of growth at 10 µM [29]: 34.5%
- Activity [8]: 84.71%
- inhibition of growth at 10 µM [30]: 2.34%
- inhibition of growth at 10 µM [31]: 16.5%
- Activity [9]: 125.24%
- inhibition of growth at 10 µM [32]: 23.5%
- Activity [10]: 106.75%
- Activity [11]: 77.27%
- inhibition of growth at 10 µM [33]: 4.54%
- inhibition of growth at 10 µM [34]: 16.7%
- Activity [12]: 97.66%
- Activity [13]: 84.88%
- inhibition of growth at 10 µM [35]: 38.1%
- Activity [14]: 82.87%
- inhibition of growth at 10 µM [36]: 22.7%
- inhibition of growth at 10 µM [37]: 12.2%
- Activity [15]: 17.13%
- Activity [16]: 27%
- inhibition of growth at 10 µM [38]: 15.1%
- Activity [17]: 87.82%
- Activity [18]: 80.06%
- Activity [19]: 23.48%
- growth inhibition (GI) [39]: inactive
- inhibition of growth at 10 µM [40]: 24.2%
- Activity [20]: 72.62%
- Activity [21]: 84.48%
- Activity [22]: 83.75%
- inhibition of growth at 10 µM [41]: 55.7%
- Activity [23]: 61.89%
- inhibition of growth at 10 µM [42]: 6.6%
- inhibition of growth at 10 µM [43]: 12.2%
- inhibition of growth at 10 µM [44]: 18.3%
- Activity [24]: 87.11%

Structure (SMILES): C=C1CC[C@@H]2[C@](C)(COC(C)=O)[C@H](OC(C)=O)CC[C@@]2(C)[C@@H]1CC(Sc1ccccc1)C1=CCOC1=O (mixture of isomers)
- Activity [1]: 11.37%
- Activity [2]: -68.06%
- Activity [3]: -43.56%
- Activity [4]: -4.72%
- Activity [5]: 22.94%
- Activity [6]: 24.5%
- Activity [7]: -9.88%
- Activity [8]: -31.19%
- Activity [9]: 5.01%
- Activity [10]: 7.4%
- Activity [11]: 13.51%
- Activity [12]: 11.62%
- Activity [13]: -4.19%
- Activity [14]: 100.23%
- Activity [15]: -80.61%
- Activity [16]: -39.29%
- Activity [17]: 26.59%
- Activity [18]: 16.39%
- Activity [19]: -5.24%
- Activity [20]: 101.38%
- Activity [21]: 11.88%
- Activity [22]: 10.07%
- Activity [23]: -38.36%
- Activity [24]: -22.62%
